Source: US4278675A, “Bronchodilating process” (Bristol-Myers Company, priority 1979, dated 1981)
Converted amounts (≈) assume the structure as drawn. Read-outs that look alike come from different tables or passages of the source.

Legend:
[1] = system: Arterial blood pressure (ABP); assay: In vivo hypotensive activity: arterial blood pressure (ABP) in anesthetized guinea pig; settings: intravenous; for ABP ED20 (dose which reduces arterial blood pressure by 20%): anesthetized guinea pig, hypotensive activity; for Ratio ABP/ITP (hypotensive ED20/bronchodilating ED50): guinea pig, larger ratio = greater separation of bronchodilator activity and hypotensive side effect
Experimental: (§1) The trachea of anesthetized guinea pig was cannulated and the ITP recorded on a polygraph under artificial ventilation. Arterial blood pressure (ABP; reflecting hypotensive activity) was also measured during the experiment. Either intravenous or intraduodenal routes of administration are used. […] The ratio of hypotensive ED20 /bronchodilating ED50 reflects an assessment of the separation of desirable bronchodilator activity from undesirable cardiovascular (hypotensive) effect in the compounds. The larger the ABP/ITP ratio, the greater separation of bronchodilator activity and hypotensive side effect.

[2] = system: intratracheal pressure (ITP) in the guinea pig; assay: In vivo bronchodilator activity: decrease in intratracheal pressure (ITP) in anesthetized guinea pig; settings: Cavia porcellus, intravenous, read-out: ITP ED50 (dose resulting in a 50% decrease in intratracheal pressure)
Experimental: as §1

[3] = system: Tracheal chains of guinea pig; assay: In vitro bronchodilator activity, tracheal chains of guinea pig (Magnus method); format: cell-based; settings: Cavia porcellus, relative to 0.1 mcg./ml. isoproterenol, read-out: EC50 (concentration producing a relaxation which is 50% of the maximum response to 0.1 mcg./ml. of isoproterenol)
Experimental: Tracheal chains of guinea pig were prepared by the method of A. Akcasu, Arch. Int. Pharmcodyn. […] The response to each test compound was recorded by the Magnus method and expressed as a percentage of the maximum response obtained with 0.1 mcg./ml. of isoproterenol prior to each experiment.

[4] = prior art (U.S. Pat. No. 3,930,005), cited from earlier work

For CCCOc1nc(N)c2ncn(Cc3ccccc3)c2n1 [9-Benzyl-2-n-propoxy-9H-adenine], the “ABP ED20 (dose which reduces arterial blood pressure by 20%)” value [1] was 1.7 mg/kg, the “Ratio ABP/ITP (hypotensive ED20/bronchodilating ED50)” value [1] was 2.0 and the ED50 [2] was 0.83 mg/kg. For the same compound, the EC50 [3] was 0.34 µg/mL (≈ 1.2 µM).

With Cn1c(=O)c2[nH]cnc2n(C)c1=O [Aminophylline, reference compound] the “ABP ED20 (dose which reduces arterial blood pressure by 20%)” value [1] was 1.4 mg/kg.

With Nc1ncnc2c1ncn2C1CCCCC1 [9-Cyclohexyl-9H-adenine, 9-cyclohexyl-9H-adenine] the “ABP ED20 (dose which reduces arterial blood pressure by 20%)” value [1] was > 3 mg/kg, the “Ratio ABP/ITP (hypotensive ED20/bronchodilating ED50)” value [1] was > 1.2 and the ED50 [2] was 0.24 mg/kg. For the same compound, the EC50 [3] was 0.91 µg/mL (≈ 4.19 µM), the anti-inflammatory activity ([4]; listed as 9-cyclohexyl-9H-adenine) was “no activity or activity of no practical value” and the anti-inflammatory activity ([4]; listed as drawing 2) was “relatively inactive”.
